Data set [1] has as its target T1, P2X7 (Mus musculus, UniProt Q9Z1M0).
T1 construct: endogenous in cells; host or cells: EOC13 murine microglial cell line
T1 sequence (Q9Z1M0 1-595): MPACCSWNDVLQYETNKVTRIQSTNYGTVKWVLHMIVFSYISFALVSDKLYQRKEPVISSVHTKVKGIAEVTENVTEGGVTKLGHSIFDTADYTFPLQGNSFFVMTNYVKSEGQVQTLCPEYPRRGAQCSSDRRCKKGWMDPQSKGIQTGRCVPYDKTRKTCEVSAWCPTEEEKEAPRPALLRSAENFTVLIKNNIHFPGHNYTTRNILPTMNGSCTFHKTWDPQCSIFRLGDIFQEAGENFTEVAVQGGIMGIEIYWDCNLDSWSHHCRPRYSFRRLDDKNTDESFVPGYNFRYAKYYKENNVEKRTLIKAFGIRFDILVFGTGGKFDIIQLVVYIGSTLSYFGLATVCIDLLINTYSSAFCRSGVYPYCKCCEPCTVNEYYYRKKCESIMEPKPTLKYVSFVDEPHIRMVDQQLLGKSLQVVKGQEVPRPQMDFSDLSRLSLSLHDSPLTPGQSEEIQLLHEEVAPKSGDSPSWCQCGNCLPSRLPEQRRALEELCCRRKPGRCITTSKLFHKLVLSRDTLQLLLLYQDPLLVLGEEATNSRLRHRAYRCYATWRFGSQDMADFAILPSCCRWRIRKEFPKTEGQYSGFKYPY
Description: Fixed-time ethidium+ uptake assay (flow cytometry) in J774 macrophage cells. To be noted: for ethidium+ uptake compared to absence of nucleotide: 5 min. The format is cell-based, murine. In general terms: Flow cytometry measures light scatter and fluorescence of single cells or particles in a stream.

For data set [2], the target named is T1, P2X7. Description: Fixed-time ethidium+ uptake assay (flow cytometry) in EOC13 microglial cells. To be noted: for impairment of ATP-induced ethidium+ uptake: 15 min preincubation. The format is cell-based, murine.
Data set [3] has as its system EOC13 cells. Description: Cell viability assessed by forward and side scatter (gated viable cells). As to conditions: for reduction of the amount of gated viable cells: ethidium+ uptake assay; for cell viability (forward and side scatter): 10 μM. The format is cell-based, murine.
Data set [4] concerns EOC13 cells.
Data set [5] relates to EOC13 cells. Description: NO formation assay (DAF-FM DA, flow cytometry) in EOC13 cells. The format is cell-based, murine. From the text:
The medium was removed, and the cells were washed once.

Data set [6] concerns P2X7. Also on record: method as in PMID 18657557. As to conditions: read-out: half maximal effective concentration (EC50) of ATP for P2X7 activation; cited from earlier work.
The test system of data set [7] is EOC13 cells. Kind of data set: cells. The data set is classed as cell-based. On the procedure: (§1) Following the 24 h incubations, cells were harvested from wells using 0.05% trypsin (5 min, 37°C) and washed once with Annexin-V binding medium (NaCl medium containing 5 mM CaCl2). Cells were then incubated with Annexin-V binding medium containing Annexin-V-Fluorescein and 7AAD at room temperature protected from light for 15 min. […] Quadrant markers were used to determine the percentage of Annexin-V^+/7AAD^−, Annexin-V^−/7AAD^+, and Annexin-V^+/7AAD^+ cells. In some experiments, cells prior to harvesting were visualised by DIC imaging to examine cell morphology, and DIC images captured as outlined in Section 2.8.

Data set [8] concerns EOC13 cells. Kind of data set: cells. To be noted: Mus musculus, read-out: inhibition of ATP-induced ROS formation, EOC13 cells, 40 mM NAC, 30 min preincubation, 1.4 mM ATP, NaCl medium.
Data set [9] deals with EOC13 cells. Kind of data set: Cell morphology by DIC imaging. The data set is classed as cell-based, murine. On the procedure: as §1
The target of data set [10] is T1, P2X7. Description: Fixed-time YO-PRO-1 2+ uptake assay (flow cytometry) in EOC13 microglial cells. The format is cell-based, murine. To be noted: 10 μM.
Where [11] appears, read: read-out: IC50 for impairment of 1 mM ATP-induced ethidium+ uptake, J774 cells, NaCl medium, 15 min preincubation, 1 mM ATP 5 min, 37°C.
[12] abbreviates: EOC13 cells, antagonist 30 μM, 1 mM ATP.

Values joined by “and” are separate entries in the source; they are usually repeats but may differ in a detail not shown here. Equal values may be shown once. “Also recorded” adds a separate entry of the source. Read-outs that look alike come from different tables or passages of the source.

We go through eight compounds from PMC3568910, “P2X7 Receptor Activation Induces Reactive Oxygen Species Formation and Cell Death in Murine EOC13 Microglia” (Mediators of Inflammation, 2013).

Broadly, the IC50 is the midpoint of a concentration-inhibition curve. Turning to `Clc1cccc(-c2nnnn2Cc2cccnc2)c1Cl` [A438079], the “inhibition of ATP-induced ethidium+ uptake” value on P2X7 [1] (J774 cells, antagonist 100 μM, 1 mM ATP) is “completely inhibited”. Also, at P2X7 [1] (setting [11]), the half-maximal inhibitory concentration (IC50) is 7.9 ± 0.4 µM. Further, at P2X7 [2] (EOC13 cells, antagonist 100 μM, 1 mM ATP), the “impairment of ATP-induced ethidium+ uptake” value (“impairment” below) was found to be 90 ± 1%.
For the compound `O=C1CSC(=O)N1C(CCc1ccncc1)COc1ccc(-c2cccc([N+](=O)[O-])c2)cc1` (centres unmarked) [AZ11645373], the “type of antagonism at the ATP concentration used” value at P2X7 [1] (J774 cells, 1 mM ATP) is “partial antagonists”. Further, the IC50 on P2X7 [1] (setting [11]) was found to be 1.5 ± 0.1 µM. Further, in the data set on EOC13 cells [3] (30 μM), the “reduction of the amount of gated viable cells” value is ~ 30%. Moreover, the “effect on basal ethidium+ uptake” value at P2X7 [2] (EOC13 cells, absence of ATP, antagonist at concentration used (10-100 μM)) is “significantly altered”. Also, the “impairment” value on P2X7 [2] (setting [12]) is listed as 99 ± 1%.
Consider `Nc1ncnc2c1ncn2[C@@H]1O[C@H](COP(=O)(O)OP(=O)(O)OP(=O)(O)O)[C@@H](O)[C@H]1O` [ATP, adenosine-5′-triphosphate], for which the “ROS formation compared to absence of ATP” value is “induced significant ROS formation” with EOC13 cells [4] (575 μM ATP4- (1.4 or 2 mM ATP), NaCl medium in absence and presence of 1 mM Ca2+); “induced significant ROS formation” in the data set with EOC13 cells [4] (1.4 mM ATP, NaCl and KCl media); “induced significant ROS formation” with EOC13 cells [4] (1.4 mM ATP, NaCl medium, 15 min (NAC experiment control)); “significant but similar amounts of ROS formation” with EOC13 cells [4] (1.4 mM ATP, absence and presence of 100 μM EGTA). The “MFI of ROS formation” value in the data set on EOC13 cells [4] (2 mM ATP, NaCl medium with 1 mM Ca2+, 15 min, absence of ATP 5.18 ± 0.06) amounted to 16.3 ± 0.6. Moreover, the “ATP concentrations inducing significant ROS formation” value with EOC13 cells [4] (complete DMEM medium, 15 min) is given as 2 or 3 but not 1 mM ATP. In addition, the “NO formation compared to absence of ATP” value with EOC13 cells [5] (1.4 mM ATP, 15 min, NaCl medium) is “induced significant NO formation”. In addition, the “ethidium+ uptake compared to absence of nucleotide” value is “induced significant ethidium^+ uptake” at P2X7 [1] (J774 cells, 1 mM ATP) and “induce significant ethidium^+ uptake” at P2X7 [2] (EOC13 cells, 1 mM ATP, 5 min). Also, the EC50 was 100 to 300 µM in the data set on P2X7 [6]; ~130 µM and 130 µM on P2X7 [2] (EOC13 cells, NaCl medium, 5 min, 37°C, read-out: EC50 for induction of ethidium+ uptake). The “duration of transient ATP incubation giving significant cell death” value in the data set with EOC13 cells [7] (EOC13 cells, 2 mM ATP, then fresh medium 24 h) is 30 or 60 min but not 15 min and 30–60 but not 15 min. Moreover, the “ATP concentrations giving significantly higher total cell death than absence of ATP” value in the data set with EOC13 cells [7] (EOC13 cells, complete DMEM medium, 24 h) was 2 or 3 mM ATP but not 1 mM ATP and 2 or 3 but not 1 mM ATP.
As for `c1ccc2c(c1)[I+]c1ccccc1-2` [DPI, diphenyleneiodonium], the “cell death on preincubation” value with EOC13 cells [4] (5–40 μM DPI, 30 min preincubation, data not shown) was “high amounts of cell death; also recorded: induced the death of EOC13 microglia”.
In the case of `CCOc1ccc(Nc2ccc(/C(=C3C=C/C(=[N+](/CC)Cc4cccc(S(=O)(=O)[O-])c4)C=C/3C)c3ccc(N(CC)Cc4cccc(S(=O)(=O)O)c4)cc3C)cc2)cc1` [BBG, Brilliant Blue G], the IC50 on P2X7 [1] was 1.8 ± 0.2 µM. Further, the “type of antagonism at the ATP concentration used” value on P2X7 [1] (J774 cells, 1 mM ATP) is given as “partial antagonists”. For the same compound, the “impairment” value on P2X7 [2] (setting [12]) is 75 ± 2%.
As to 2′(3′)-O-(4-benzoylbenzoyl) ATP [BzATP], the “ethidium+ uptake compared to absence of nucleotide” value was “induced significant ethidium^+ uptake” on P2X7 [1] (J774 cells, 0.1 mM BzATP) and “induce significant ethidium^+ uptake” at P2X7 [2] (EOC13 cells, 0.1 mM BzATP, 5 min).
Broadly, the inhibition is the drop in the measured response relative to a control, in per cent. `CC(=O)N[C@@H](CS)C(=O)O` [NAC, N-acetyl-L-cysteine]: the “inhibition of ATP-induced ROS formation” value with EOC13 cells [4] (40 mM NAC, 30 min preincubation, 1.4 mM ATP, NaCl medium) is recorded as 74%. Moreover, in the data set on EOC13 cells [3] (incubation with 40 mM NAC and ATP together, not either compound alone), the “reduction of the amount of gated viable cells” value is recorded as ~ 40%. Moreover, the inhibition at 40000 µM was 30 ± 2% on P2X7 [2] (P2X7, read-out: inhibition of ATP-induced ethidium+ uptake (pore formation)); 99 ± 6% in the data set on EOC13 cells [7] (Mus musculus, read-out: inhibition of ATP-induced cell death); 73.7 ± 0.3% with EOC13 cells [8]. In addition, the “effect on percentage of ATP-induced cell death” value with EOC13 cells [7] (EOC13 cells, 40 mM NAC, 75 and 30 min preincubation followed by 15 and 60 min 2 mM ATP, respectively) was “had no effect”. For the same compound, the “effect on ATP-associated morphological changes (DIC)” value in the data set on EOC13 cells [9] (40 mM NAC 90 min, 2 mM ATP final 45 min, then 24 h) was “prevented the morphological changes associated with ATP incubation”. In the data set on EOC13 cells [9] (ROS assay conditions, 40 mM NAC with or without 1.4 mM ATP), the “effect on cell morphology (DIC)” value is “not altered by NAC”. For the same compound, the “effect on cell morphology (DIC), NAC alone” value in the data set with EOC13 cells [9] (cell death assay conditions, 40 mM NAC 90 min, then 24 h) is “no effect on cell morphology”.
Turning to `O=C(CC12CC3CC(CC(C3)C1)C2)Nc1cccc2nc(NCCNCCO)ccc12` [AZ10606120], the “inhibition of ATP-induced ROS formation” value with EOC13 cells [4] (10 μM, 15 min preincubation, 2 mM ATP, NaCl medium with 1 mM Ca2+) is “complete inhibition; also recorded: completely impaired”; in the data set on EOC13 cells [4] (10 μM, 15 min preincubation, 2 mM ATP, complete DMEM medium) it was “completely inhibited”. Besides, the “effect on basal ROS formation” value in the data set with EOC13 cells [4] (10 μM, absence of ATP) was “did not significantly alter”. For the same compound, the “inhibition of ATP-induced NO formation” value with EOC13 cells [5] (10 μM, 15 min preincubation, 1.4 mM ATP) was 82 ± 11%. The “effect on basal NO formation” value with EOC13 cells [5] (10 μM, absence of ATP) is on record as “did not significantly alter”. The “inhibition of ATP-induced ethidium+ uptake” value at P2X7 [1] (J774 cells, antagonist 10 μM, 1 mM ATP) is on record as “completely inhibited”. The IC50 on P2X7 [1] (setting [11]) stood at 1 ± 0.1 µM. For the same compound, the “cell viability (forward and side scatter)” value with EOC13 cells [3] (NO assay) and in the data set with EOC13 cells [3] (ROS assay) was “did not significantly alter” throughout. In addition, the “inhibition of ATP-induced YO-PRO-1 2+ uptake” value against P2X7 [10] (15 min preincubation, 1 mM ATP) is reported as “complete inhibition”. Further, the “effect on basal YO-PRO-1 2+ uptake” value on P2X7 [10] (absence of ATP) is “did not significantly alter”.
